Values after ≈ are worked out from the molar mass of the structure shown. Each block holds one compound with its values, some of them ahead of it.
Experiments:
[1] = Solid-state properties (hygroscopicity, stability, dissolution) stated in comparison with amorphous material and salts; assay type: physicochemical; conditions: solid material; for Hygroscopicity: comparison crystalline forms vs amorphous material
[2] = Solubility of tetrahydrate Form S3 in different solvents; assay type: physicochemical
[3] = assay type: physicochemical
Excerpt: Preferably, the anhydrates or ansolvates according to the invention and especially the crystalline form A1 can be characterised, alternatively or additionally, by dynamic vapour sorption experiments. The results can be obtained by standard techniques as described in Rolf Hilfiker, ‘Polymorphism in the Pharmaceutical Industry’, Wiley-VCH. Weinheim 2006 (Chapter 9: Water Vapour Sorption, and references therein). […] Eur. criteria.
Preferably, the tetrasolvates according to the invention, more preferably the tetrahydrates according to the invention and especially the crystalline form S3 can be characterised, alternatively or additionally, by dynamic vapour sorption experiments. The results can be obtained by standard techniques as described in Rolf Hilfiker, ‘Polymorphism in the Pharmaceutical Industry’, Wiley-VCH. Weinheim 2006 (Chapter 9: Water Vapour Sorption, and references therein).
Dynamic Vapor Sorption measurements are preferably obtained on a SMS DVS Intrinsic system. The results are preferably obtained by standard techniques as described by Rolf Hilfiker “Polymorphism in the Pharmaceutical Industry” Wiley-VCH Weinheim 2006 (Chapter 9: Water Vapour Sorption, and references therein.) Approx. 2-10 mg of samples are preferably weighed into an Aluminium 100 μL pan and placed in the sample incubator of the DVS instrument with microbalance. A nitrogen overall flow rate of 200 mL/min (combined dry and humid stream) is preferably used for humidification. Water vapor sorption isotherms are preferably acquired at 25° C. in the range 0% relative humidity to 98% relative humidity mostly with 10% relative humidity steps. For all relative humidity steps, an equilibrium condition of dm/dt≦0.0005 wt %/min are preferably used, with a minimum relative humidity step time of 10 minutes and a maximum relative humidity step time of 360 minutes which is preferably used as a timeout if the dm/dt criterai mentioned above is not been reached.
A SMS DVS I system is used for the dynamic vapour experiments regarding crystalline form S3. The results have been obtained by standard techniques as described in Rolf Hilfiker, ‘Polymorphism in the Pharmaceutical Industry’, Wiley-VCH. Weinheim 2006 (Chapter 9: Water Vapour Sorption, and references therein). […] During the water adsorption cycle there is shown an assembly of water molecules (ca. 10 wt%) in the lattice at elevated rh. In the second desorption cycle there is a loss of this amount of water.
(§1) A SMS DVS Intrinsic is used for the dynamic vapour experiments. The results are obtained by standard techniques as described in Rolf Hilfiker, ‘Polymorphism in the Pharmaceutical Industry’, Wiley-VCH. Weinheim 2006 (Chapter 9: Water Vapour Sorption, and references therein). […] Upon water vapour adsorption, an assembly of water molecules in the lattice is observed, with a maximum weight gain of approx. 8 wt % at elevated rh. In the second desorption cycle a total mass loss of approx. 9.9 wt % is observed. For a Cilengitide Dihydrate Di-Methanolate, the calculated Methanol content equals 9.3 wt %.
as §1, with “6.4” for “8”, “9.2” for “9.9”, “Di-Ethanolate,” for “Di-Methanolate,”, “Ethanol” for “Methanol”, “12.5” for “9.3”

[4] = Slurry conversion and competitive slurry conversion in water, saline, buffer and other solvents; assay type: physicochemical; conditions: in the presence of aqueous based solvents (suspensions, wetted material), absence of methanol and/or ethanol
Experimental: a) Crystalline tetrasolvates according to the invention and especially crystalline forms S1 and S2, can be obtained by slurry conversion from form A1 in a Methanol/Water mixture (70 v %:30 v %) at 25° C. for 2 days stirring time and Ethanol/Water mixture (60 v %:40 v %) at 25° C. for 18 days stirring time, respectively. General procedure:
Approx. 500 mg of form A1 of Cilengitide are dispersed in 5 ml solvent at room temperature. The dispersion is stirred for the mentioned time by a magnetic stirrer and finally filtered.
Form A1 of Cilengitide can be obtained by slurry conversion from pseudopolymorphic forms (for example S1, S2, S3 or mixtures of these) in Water at 25° C. An increased temperature (50° C.) accelerates the conversion to form A1.
Approx. 10 g of a pseudopolymorphic form (for example S1, S2, S3 or mixtures of these) of Cilengitide are dispersed in 50 ml deionised water at room temperature. The dispersion is stirred for 24 h by a magnetic stirrer and finally filtered.
Also the pure form form A1 can be manufactured by competitive slurry conversion experiments with a mixture of a pseudopolymorphic form (for example S1, S2, S3 or mixtures of these) and A1 (1:1) in Acetone, Acetonitrile, Isopropanol, physiological NaCl solution, Phosphate buffer (pH 7.4) and 1:1 (v:v) mixtures of Acetone, Acetonitrile, Isopropanol with Water at RT (25° C.).
Approx. […]

[5] = Competitive slurry conversion of pseudopolymorphic form and form A1 (1:1) in Water/Methanol and Water/Ethanol mixtures; assay type: physicochemical; conditions: for Methanol in the mixture with Water leading to form S1: 1:1 pseudopolymorphic form + A1
Experimental: b) Additionally, crystalline tetrasolvates according invention and especially crystalline forms S1 and S2 can be manufactured by competitive slurry conversion experiments with a mixture of a pseudopolymorphic form (for example S1, S2, S3 or mixtures of these) with form A1 (1:1) in Water/Methanol and Water/Ethanol mixtures with different alcohol contents at different temperatures, respectively.
(§2) Approx. 20 mg of a pseudopolymorphic form (for example S1, S2, S3 or mixtures of these) and 20 mg of form A1 of Cilengitide are dispersed in 300 μl Water/alcohol mixture at 0° C. or room temperature (25° C.). The dispersion is stirred for 24 h and additionally for 3 weeks at RT (25° C.) (long-term experiment) by a magnetic stirrer and finally filtered
Approx. 20 mg of a pseudopolymorphic form (for example S1, S2, S3 or mixtures of these) and 20 mg of form A1 of Cilengitide are dispersed in 300 μl Water/alcohol mixture at 50° C. The dispersion is stirred for 24 h by a magnetic stirrer and finally filtered.
Additionally form A1 can be manufactured by competitive slurry conversion experiments with a mixture of a pseudopolymorphic form (for example S1, S2, S3 or mixtures of these) and form A1 (1:1) in Water/Methanol and Water/Ethanol mixtures with different alcohol contents at different temperatures. In the following table the conditions for the experiments leading to the pure form A1 are listed.
as §2, with “C.,” for “C. or”, “and 50° C.” for “(25° C.).”, “filtered.” for “filtered”

[6] = Methanol vapour sorption (DVS, hydrate form to form S1); assay type: physicochemical
Experimental: In the respective dynamic vapor sorption experiments discussed in more detail herein using methanol vapor at 98% relative saturation for the Dihydrate-dimethanolate/crystalline form S1 at 25° C. starting with the tetrahydrate a mass gain of 9% has been obtained. This is in good agreement with the above shown results for the tetramethanolate (calculated 108.5%, i.e. 8.5% of mass gain).
Preferably, the tetrasolvates according to the invention, more preferably the Dihydrate-dimethanolate, the Dihydrate-methanolate, the Dihydrate-monoethanolate, the Dimethanolate and/or the desolvates thereof, and especially the crystalline form S1 can be characterised, alternatively or additionally, by dynamic vapour experiments using water vapour and/or methanol vapour. The results can be obtained by standard techniques as described in Rolf Hilfiker, ‘Polymorphism in the Pharmaceutical Industry’, Wiley-VCH. Weinheim 2006 (Chapter 9: Water Vapour Sorption, and references therein).
Upon water vapour adsorption, an assembly of water molecules in the lattice is observed, with a maximum weight gain of approx. 8 wt % at elevated rh. In the second desorption cycle a total mass loss of approx. 9.9 wt % is observed. For a Dihydrate Di-Methanolate of the compound of formula I, the calculated Methanol content equals 9.3 wt %. […] Methanol Vapour Sorption Isotherm (25° C.) of a hydrate form to form S1 (SMS DVS Advantage) FIG. 14.
Thus, crystalline form S1 is a crystalline Methanol solvate form or a mixed water/methanol solvate form, preferably selected from the Dihydrate-methanolate, the Dihydrate-monoethanolate, the Dimethanolate and/or the desolvates thereof, which can be obtained e.g. via Methanol Vapour Sorption, preferably via Methanol Vapour Sorption starting with a hydrate structure, such as the hydrates according to the invention and especially the tetrahydrate according to the invention, i.e crystalline form S3. […]

[7] = Conditioning of amorphous Cilengitide under methanol atmosphere; assay type: physicochemical; conditions: MeOH liquid phase 100 v %
Excerpt: As still another example, conditioning of amorphous material of the compound according to formula I or hydrate forms under methanol atmosphere yielded crystalline solvates with 2 molecules methanol per molecule of the compound according to formula I.
Conditioning of amorphous Cilengitide (abbreviated: Cil; Cilengitide=Cyclo-(Arg-Gly-Asp-DPhe-NMeVal) under methanol atmosphere yielded a solvate with 2 molecules methanol per molecule Cilengitide.

[8] = 50° C. for 1 day, table of b579
[9] = 50° C. for 1 day, table of b595
[10] = water vapour sorption, 25° C., listed as S1

- Hygroscopicity ([1]; listed as amorphous forms): unfavourably hygroscopic
- Hygroscopicity ([1]; listed as amorphous solid material): very high hygroscopicity
- Physical and/or chemical (solid state) stability ([1]; comparison crystalline forms vs amorphous phase): low stability
Compound: CC(C)[C@H]1C(=O)N[C@@H](CCCNC(=N)N)C(=O)NCC(=O)N[C@@H](CC(=O)O)C(=O)N[C@H](Cc2ccccc2)C(=O)N1C [amorphous material, cyclo-(Arg-Gly-Asp-DPhe-NMe-Val)]

- solubility ([2]; solvent H2O): 21.6 mg/mL (≈ 36.7 mM)
- solubility ([2]; solvent H2O/Acetone (1:1)): 22.7 mg/mL (≈ 38.6 mM)
- solubility ([2]; solvent H2O/Acetonitrile (1:1)): 24.3 mg/mL (≈ 41.3 mM)
- solubility ([2]; solvent H2O/EtOH (1:1)): 13 mg/mL (≈ 22.1 mM)
- solubility ([2]; solvent H2O/MeOH (1:1)): 12.8 mg/mL (≈ 21.7 mM)
- solubility ([2]; solvent H2O/iPrOH (1:1)): 22.9 mg/mL (≈ 38.9 mM)
- solubility ([2]; solvent buffer pH 7.4): 24.4 mg/mL (≈ 41.4 mM)
- solubility ([2]; solvent physiological NaCl solution): 21.1 mg/mL (≈ 35.8 mM)
Compound: CC(C)[C@H]1C(=O)N[C@@H](CCCN=C(N)N)C(=O)NCC(=O)N[C@@H](CC(=O)O)C(=O)N[C@H](Cc2ccccc2)C(=O)N1C [crystalline form S3, cyclo-(Arg-Gly-Asp-DPhe-NMe-Val)]

- Hygroscopicity classification ([3]; acc. to Ph. Eur. criteria, water vapour sorption 25° C.): non-hygroscopic
- Water uptake levels ([3]; up to 98% relative humidity, 25° C.): small
- Thermodynamic stability of the form [4]: thermodynamically stable form
- Ethanol in the mixture with Water leading to pure form A1 ([5]; 0° C. for 1 day): 0-10 v %
- Methanol in the mixture with Water leading to pure form A1 ([5]; 0° C. for 1 day): 0 v %
- Ethanol in the mixture with Water leading to form A1 (no pseudopolymorphic form obtained) [5, 8]: 90-100 v %
- Methanol in the mixture with Water leading to form A1 (no pseudopolymorphic form obtained) [5, 8]: 90-100 v %
- Ethanol in the mixture with Water leading to pure form A1 [5, 9]: 0-80 v %
- Methanol in the mixture with Water leading to pure form A1 [5, 9]: 0-70 v %
- Ethanol in the mixture with Water leading to pure form A1 ([5]; RT for 3 weeks): 0-20 v %
- Methanol in the mixture with Water leading to pure form A1 ([5]; RT for 3 weeks): 0-40 v %
- Ethanol in the mixture with Water leading to pure form A1 ([5]; RT for 1 day): 0-30 v %
- Methanol in the mixture with Water leading to pure form A1 ([5]; RT for 1 day): 0-50 v %
Compound: cyclo-(Arg-Gly-Asp-DPhe-NMe-Val) [crystalline form A1]
- Physical stability of the crystal form versus relative humidity [3]: physical stability of the crystal form throughout the entire relative humidity range (0-98%)
- Formation or conversion to a hydrate ([3]; water vapour sorption up to 98% relative humidity): No formation or conversion to a hydrate is observed

- Maximum weight gain upon water vapour adsorption ([3]; elevated rh, 25° C., listed as S1): approx. 8 wt %
- Mass loss in the first desorption cycle [3, 10]: approx. 8 wt %
- Total mass loss in the second desorption cycle [3, 10]: approx. 9.9 wt %
- Thermodynamic stability of the form ([6]; atmosphere of 100% Methanol vapour): thermodynamically stable form
- Methanol taken up by the sample ([6]; elevated Methanol partial pressure, starting with a hydrate structure): approx. 9 wt %
- Mass gain ([6]; methanol vapor at 98% relative saturation, 25° C., starting with the tetrahydrate): 9%
- Methanol in the mixture with Water leading to form S1 ([5]; 0° C. for 1 day): 40-100 v %
- Methanol in the mixture with Water leading to form S1 ([5]; RT for 3 weeks): 60-100 v %
- Methanol in the mixture with Water leading to form S1 ([5]; RT for 1 day): 60-100 v %
- H2O KF [7]: 0.3 wt %
- MeOH HS-GC [7]: 10.0 wt %
- Σ TG [7]: 10.4 wt %
- H2O KF ([7]; per 1 mol Cil): 0.1 mol
- MeOH HS-GC ([7]; per 1 mol Cil): 2.1 mol
Compound: cyclo-(Arg-Gly-Asp-DPhe-NMe-Val) [crystalline form S1]

From US8765684B2, “Solid materials of {[(2S,5R,8S,11S)-5-benzyl-11-(3-guanidino-propyl)-8-isopropyl-7-methyl-3,6,9,12,15-pentaoxo-1,4,7,10,13-pentaaza-cyclopentadec-2-yl]-acetic acid} and methods for obtaining them” (Merck Patent GmbH, priority 2009, dated 2014)
